The values that follow come from patent US11613533B2, “Compounds useful for inhibiting RET kinase” (Eli Lilly and Company, priority 2020, dated 2023).

SMILES strings stand for the structures.

Experiment [1] concerns the target T1, KIF5B-RET WT in HEK293 cells (Homo sapiens, UniProt P07949).
T1 construct: expressed in transfected cells; host or cells: HEK293; the other entry of the earlier key: KIF5B (P33176, Kinesin-1 heavy chain)
T1 sequence (P07949 713-1063 limits assumed): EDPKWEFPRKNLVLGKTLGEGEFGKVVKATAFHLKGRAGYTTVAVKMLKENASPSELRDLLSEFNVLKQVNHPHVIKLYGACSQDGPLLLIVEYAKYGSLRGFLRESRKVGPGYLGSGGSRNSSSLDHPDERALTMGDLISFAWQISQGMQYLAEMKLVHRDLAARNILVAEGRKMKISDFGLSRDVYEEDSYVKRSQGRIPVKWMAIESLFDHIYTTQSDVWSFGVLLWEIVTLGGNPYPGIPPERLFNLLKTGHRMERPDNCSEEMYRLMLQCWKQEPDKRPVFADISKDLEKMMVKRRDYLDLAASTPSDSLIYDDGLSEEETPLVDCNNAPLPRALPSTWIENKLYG
Put plainly: RET cell assay (In-Cell Western, phospho-RET Y1062), wildtype. Particulars: HEK293, doxycycline-induced KIF5B-RET WT, 1 hr compound treatment; read-out: EC50, inhibition of intracellular autophosphorylation of RET at tyrosine 1062, wildtype cells. The experiment is classed as cell-based. As for the experimental part:
Compounds of formulas (I), (II), and (III) are screened for their ability to inhibit the intracellular autophosphorylation of RET at tyrosine 1062 as detected by In-Cell Western. HEK293 cells containing a doxycycline-inducible plasmid for inducible expression of KIF5B-RET WT and RET mutant forms V804M and G810S are seeded at 25,000 cells/well into black poly-D-lysine pre-coated 384-well plates (Corning, Catalog No. 356697). Expression of KIF5B-RET is induced with doxycycline at 1 μg/mL and cells are incubated at 37° C. overnight. Compounds are prepared in a threefold serial dilution in DMSO before further diluting 1:100 in media prior to the addition to the cells (0.1% final DMSO concentration). Compound treatment is performed for 1 hr at 37° C. followed by fixation of cells with 4% formaldehyde for 20 min at RT and cell permeabilisation with ice-cold MeOH for 10 min at RT. Cells are incubated with Intercept® blocking buffer (Li—COR, Catalogue No. 927-70010) for 1 hr at RT. Incubation with primary antibodies against human phospho-RET (Y1062) (R&D, Catalogue No. AF5009, 1/250 dilution) and human glyceraldehyde-3-phosphate dehydrogenase (clone 6C5, Merck, Catalog No. MAB374, 1/1000 dilution) are performed overnight at 4° C. Incubation with secondary antibodies IRDye® 800CW goat anti-rabbit IgG (Li—COR, Catalogue No. 926-32211, 1/1000 dilution) and IRDye® 680CW goat anti-mouse IgG (Li—COR, Catalogue No. 926-68070, 1/1000 dilution) are performed for 1 hr at RT. All antibody dilutions are done in Intercept® blocking buffer containing 0.05% Tween20. After washing cells with PBS-T (Cell Signaling technology, Catalogue No. 9809), the images are acquired on a Li—COR Odyssey LCx at 700 and 800 nm. Percent of DMSO control is calculated with 100% signal referring to control conditions containing no compound (0.4% DMSO only) and 0% signal represented by conditions containing control compound. The % of DMSO control values are fit to a 4 parameter logistic curve, and the determined EC50 value is defined as the estimated concentration of inhibitor at the inflexion point of the fitted curve.

For experiment [2], the target named is T2, V804M mutant RET kinase (N-terminal GST tagged recombinant human V804M mutant RET cytoplasmic domain, aa 658-end) (Homo sapiens, UniProt P07949, V804M).
T2 construct: human V804M mutant RET cytoplasmic domain (aa 658-end); GST (N); purchased Millipore 14-760
T2 sequence (P07949 658-1114 V804M limits assumed): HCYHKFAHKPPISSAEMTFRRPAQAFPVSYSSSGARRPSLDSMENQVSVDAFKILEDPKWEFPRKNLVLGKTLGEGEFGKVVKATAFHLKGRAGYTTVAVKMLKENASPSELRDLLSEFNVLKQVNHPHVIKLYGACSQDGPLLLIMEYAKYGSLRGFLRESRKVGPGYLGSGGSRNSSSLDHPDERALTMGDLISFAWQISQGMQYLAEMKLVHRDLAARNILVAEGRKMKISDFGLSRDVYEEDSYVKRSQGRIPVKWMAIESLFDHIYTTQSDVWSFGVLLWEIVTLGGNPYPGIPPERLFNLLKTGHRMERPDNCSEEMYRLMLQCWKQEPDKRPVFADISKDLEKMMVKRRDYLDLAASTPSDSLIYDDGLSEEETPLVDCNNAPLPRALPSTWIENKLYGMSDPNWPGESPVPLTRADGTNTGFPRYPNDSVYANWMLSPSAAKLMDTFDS
Put plainly: RET enzyme assay (HTRF KinEASE TK), V804M. Type of experiment: biochemical. The note with it: 1 mM ATP, 40 min incubation at 22° C. As for the experimental part:
Assay A: RET Enzyme Assay
Compounds of formulas I, II, or III are screened for their ability to inhibit wildtype, V804M, and G810S mutant RET kinase using CisBio's HTRF® KinEASE™TK assay technology. N-terminal GST tagged recombinant human RET cytoplasmic domain (aa 658-end) from Eurofins ([…]; Catalog No. 14-570M) or N-terminal GST tagged recombinant human V804M mutant RET cytoplasmic domain (aa 658-end) from Millipore (1.25 nM enzyme; Catalog No. 14-760) or N-Terminal GST-tagged recombinant human G810S (aa-658-end) (1.25 nM Enzyme; produced in insect cells) is incubated with 62.5 nM TK-substrate biotin (CisBio, part of Catalog No. 62TK0PEC) and 1 mM ATP along with test compound (0.4% final DMSO in the assay) in a 1× Cisbio enzymatic buffer consisting of […], 5 mM MgCl2, 0.04% BSA and 0.05% Tween20 in a volume of 10 μL. Compounds are typically prepared in a threefold serial dilution in DMSO and added to the assay to give the appropriate final concentration. After a 40-60 min (40 min for V804M, 60 min for WT and G810S) incubation at 22° C., the reaction is quenched by adding quench solution (10 μL) containing 7.8 nM Streptavidine-XL665 and 0.5×TK-ab-Cryptate in HTRF detection buffer (all from CisBio, part of Cat. No. 62TK0PEC). After a 60-80 min incubation (60 minutes for WT, 80 minutes for V804M and G810S) at 22° C., the extent of reaction is determined using a PHERastar plate reader via HTRF detection at excitation/emission 337/665 nm. Percent of inhibition is calculated with 0% inhibition referring to control conditions containing no compound (0.4% DMSO only) and 100% inhibition represented by conditions containing no enzyme. The % inhibition values are fit to a 4 parameter logistic curve, and the determined IC50 value is defined as the estimated concentration of inhibitor at the inflexion point of the fitted curve.

Regarding `CC(C(=O)Nc1cc(CC(C)(C)C)no1)c1ccc(-c2nn(C(C)C)c(N)c2C(N)=O)cc1` (single isomer, unassigned; isomer 1) [Example 1, 5-Amino-3-[4-(1-[[3-(2,2-dimethylpropyl)-1,2-oxazol-5-yl]carbamoyl]ethyl)phenyl]-1-isopropylpyrazole-4-carboxamide, Isomer 1], the EC50 – broadly, the concentration at which the effect is half-maximal – in experiment [1] was less than 100 nM. In addition, in experiment [2], the IC50 (commonly the concentration at which inhibition is half-maximal) was less than 100 nM.

Consider `CCC(C)(C)c1cc(NC(=O)C(C)c2ccc(-c3nn(C(C)C)c(N)c3C(N)=O)cc2)on1` (single isomer, unassigned; isomer 1) [Example 15, 5-Amino-1-isopropyl-3-[4-(1-[[3-(2-methylbutan-2-yl)-1,2-oxazol-5-yl]carbamoyl]ethyl)phenyl]pyrazole-4-carboxamide, Isomer 1], for which, in experiment [1], the EC50 was less than 100 nM. Besides, the IC50 in experiment [2] was less than 100 nM.

On to `CC(C(=O)Nc1cc(C(C)(C)C(F)(F)F)no1)c1ccc(-c2nn(C(C)C)c(N)c2C(N)=O)cc1` (single isomer, unassigned; isomer 1) [Example 17, 5-Amino-1-isopropyl-3-[4-(1-[[3-(1,1,1-trifluoro-2-methylpropan-2-yl)-1,2-oxazol-5-yl]carbamoyl]ethyl)phenyl]pyrazole-4-carboxamide, Isomer 1], for which the EC50 in experiment [1] is less than 100 nM. Also, in experiment [2], the IC50 is less than 100 nM.

Take `CC(C(=O)Nc1cc(C2(C)CC2)no1)c1ccc(-c2nn(C(C)C)c(N)c2C(N)=O)cc1` (single isomer, unassigned; isomer 1) [Example 35, 5-Amino-1-isopropyl-3-[4-(1-[[3-(1-methylcyclopropyl)-1,2-oxazol-5-yl]carbamoyl]ethyl)phenyl]pyrazole-4-carboxamide, Isomer 1]: the EC50 in experiment [1] is less than 100 nM. Moreover, the IC50 in experiment [2] was less than 100 nM.

For `CC(C(=O)Nc1cc(-c2ccc(Cl)cc2Cl)no1)c1ccc(-c2nn(C(C)C)c(N)c2C(N)=O)cc1` (single isomer, unassigned; isomer 1) [Example 45, 5-Amino-3-[4-(1-[[3-(2,4-dichlorophenyl)-1,2-oxazol-5-yl]carbamoyl]ethyl)phenyl]-1-isopropylpyrazole-4-carboxamide, Isomer 1], the EC50 in experiment [1] was less than 100 nM. The IC50 in experiment [2] is less than 100 nM.

For the compound `CC(C(=O)Nc1cc(C(C)(C)C(F)(F)F)on1)c1ccc(-c2nn(C(C)C)c(N)c2C(N)=O)cc1` (single isomer, unassigned; isomer 1) [Example 81, 5-Amino-1-isopropyl-3-[4-(1-[[5-(1,1,1-trifluoro-2-methylpropan-2-yl)-1,2-oxazol-3-yl]carbamoyl]ethyl)phenyl]pyrazole-4-carboxamide, Isomer 1], in experiment [1], the EC50 is less than 100 nM. The IC50 in experiment [2] was less than 100 nM.

`CC(C(=O)Nc1cc(C2CC(C)(C)C2)no1)c1ccc(-c2nn(C(C)C)c(N)c2C(N)=O)cc1` (single isomer, unassigned; isomer 1) [Example 98, 5-Amino-3-[4-[2-[[3-(3,3-dimethylcyclobutyl)isoxazol-5-yl]amino]-1-methyl-2-oxo-ethyl]phenyl]-1-isopropyl-pyrazole-4-carboxamide, Isomer 1]: in experiment [1], the EC50 was less than 100 nM. Besides, the IC50 in experiment [2] is less than 100 nM.

In the case of `CCC(C)(C)c1cc(NC(=O)C(C)c2ccc(-c3nn(C(C)C)c(N)c3C(N)=O)cc2)no1` (single isomer, unassigned; isomer 2) [Example 52, 5-Amino-1-isopropyl-3-[4-(1-[[5-(2-methylbutan-2-yl)-1,2-oxazol-3-yl]carbamoyl]ethyl)phenyl]pyrazole-4-carboxamide, Isomer 2], the EC50 in experiment [1] was less than 100 nM. Besides, the IC50 in experiment [2] was less than 100 nM.

With `CC(C(=O)Nc1cc(C(C)(C)C(F)(F)F)on1)c1ccc(-c2nn(C(C)C)c(N)c2C(N)=O)nc1` (single isomer, unassigned; isomer 2) [Example 64, 5-Amino-1-isopropyl-3-[5-(1-[[5-(1,1,1-trifluoro-yl)-1,2-oxazol-3-2-methylpropan-2-yl]carbamoyl]ethyl)pyridin-2-yl]pyrazole-4-carboxamide, Isomer 2], in experiment [1], the EC50 was less than 100 nM. In addition, the IC50 in experiment [2] is less than 100 nM.

On to `CCC(C)(C)c1cc(NC(=O)C(C)c2ccc(-c3nn(C(C)C)c(N)c3C(N)=O)nc2)no1` (single isomer, unassigned; isomer 2) [Example 66, 5-Amino-1-isopropyl-3-[5-(1-[[5-(2-methylbutan-2-yl)-1,2-oxazol-3-yl]carbamoyl]ethyl)pyridin-2-yl]pyrazole-4-carboxamide, Isomer 2], for which, in experiment [1], the EC50 was less than 100 nM. Besides, the IC50 in experiment [2] is less than 100 nM.

For `CC(C(=O)Nc1cc(C(C)(C)CC(F)(F)F)on1)c1ccc(-c2nn(C(C)C)c(N)c2C(N)=O)nc1` (single isomer, unassigned; isomer 2) [Example 68, 5-Amino-1-isopropyl-3-(5-(1-oxo-1-((5-(4,4,4-trifluoro-2-methylbutan-2-yl)isoxazol-3-yl)amino)propan-2-yl)pyridin-2-yl)-1H-pyrazole-4-carboxamide, Isomer 2], the EC50 in experiment [1] was less than 100 nM. Moreover, the IC50 in experiment [2] is less than 100 nM.

As for `CC(C(=O)Nc1cc(C(C)(C)C(C)(F)F)on1)c1ccc(-c2nn(C(C)C)c(N)c2C(N)=O)nc1` (single isomer, unassigned; isomer 2) [Example 70, 5-Amino-3-[5-(1-[[5-(3,3-difluoro-2-methylbutan-2-yl)-1,2-oxazol-3-yl]carbamoyl]ethyl)pyridin-2-yl]-1-isopropylpyrazole-4-carboxamide, Isomer 2], the EC50 in experiment [1] is less than 100 nM. In experiment [2], the IC50 is less than 100 nM.
